Test results: US10420341B2, “Herbicidal phenylpyrimidines” (BASF SE, priority 2015, dated 2019)

Tests used:
ECHCG [1] = experiment: greenhouse post-emergence herbicidal test; assay type: in vivo, Echinocloa crus-galli; settings: post-emergence method, scale from 0 to 100
Procedure, shortened: (§1)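 Scoring 0 (no damage) to 100 (no emergence or total destruction of aerial parts), taken over a 2 to 4 week period after post-emergence treatment at 3 to 15 cm plant height. Compounds applied as aqueous suspension or emulsion; greenhouse temperature 10-25° C. or 20-35° C. depending on species.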

APESV [2] = experiment: greenhouse pre-emergence herbicidal test; assay type: in vivo, Apera spica-venti; settings: pre-emergence method, scale from 0 to 100
Procedure, shortened: (§2)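 Species-dependent temperatures of 10-25° C. or 20-35° C. were maintained for a 2 to 4 week test after pre-emergence nozzle application of compounds dispersed in water. Efficacy was scored 0-100, with 100 denoting no emergence or total aerial destruction.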

LOLMU = experiment: greenhouse post-emergence herbicidal test; assay type: in vivo, Lolium multiflorum; settings: post-emergence method, scale from 0 to 100
Description: (§3) The seeds of the test plants were sown separately for each species. For the post-emergence treatment, the test plants were first grown to a height of 3 to 15 cm, depending on the plant habit, and only then treated with the active ingredients which had been suspended or emulsified in water. For this purpose, the test plants were either sown directly and grown in the same containers, or they were first grown separately as seedlings and transplanted into the test containers a few days prior to treatment. Depending on the species, the plants were kept at 10-25° C. or 20-35° C., respectively. The test period extended over 2 to 4 weeks. During this time, the plants were tended, and their response to the individual treatments was evaluated. Evaluation was carried out using a scale from 0 to 100. 100 means no emergence of the plants, or complete destruction of at least the aerial moieties, and 0 means no damage, or normal course of growth. […] The plants used in the greenhouse experiments were of the following species: [table]

POLCO [3] = experiment: greenhouse post-emergence herbicidal test; assay type: in vivo, Polygonum convolvulus; settings: post-emergence method, scale from 0 to 100
Procedure, shortened: as §1

ECHCG [4] = experiment: greenhouse pre-emergence herbicidal test; assay type: in vivo, Echinocloa crus-galli; settings: pre-emergence method, application rate 500 g/ha, scale from 0 to 100
Procedure, shortened: as §2

SETVI [5] = experiment: greenhouse pre-emergence herbicidal test; assay type: in vivo, Setaria viridis; settings: pre-emergence method, application rate 1000 g/ha, scale from 0 to 100
Description: (§4) The seeds of the test plants were sown separately for each species. For the pre-emergence treatment, the active ingredients, which had been suspended or emulsified in water, were applied directly after sowing by means of finely distributing nozzles. The containers were irrigated gently to promote germination and growth and subsequently covered with transparent plastic hoods until the plants had rooted. This cover caused uniform germination of the test plants, unless this had been impaired by the active ingredients. Depending on the species, the plants were kept at 10-25° C. or 20-35° C., respectively. The test period extended over 2 to 4 weeks. During this time, the plants were tended, and their response to the individual treatments was evaluated. Evaluation was carried out using a scale from 0 to 100. 100 means no emergence of the plants, or complete destruction of at least the aerial moieties, and 0 means no damage, or normal course of growth. […] The plants used in the greenhouse experiments were of the following species: [table]

AMARE [6] = experiment: greenhouse pre-emergence herbicidal test; assay type: in vivo, Amaranthus retroflexus; settings: pre-emergence method, scale from 0 to 100
Description: as §4

AMARE [7] = experiment: greenhouse post-emergence herbicidal test; assay type: in vivo, Amaranthus retroflexus; settings: post-emergence method, scale from 0 to 100
Procedure, shortened: as §1

ALOMY = experiment: greenhouse post-emergence herbicidal test; assay type: in vivo, Alopercurus myosuroides; settings: post-emergence method, scale from 0 to 100
Procedure, shortened: as §1

AVEFA [8] = experiment: greenhouse post-emergence herbicidal test; assay type: in vivo, Avena fatua; settings: post-emergence method, scale from 0 to 100
Procedure, shortened: as §1

APESV [9] = experiment: greenhouse post-emergence herbicidal test; assay type: in vivo, Apera spica-venti; settings: post-emergence method, application rate 500 g/ha, scale from 0 to 100
Description: as §3

AVEFA [10] = experiment: greenhouse pre-emergence herbicidal test; assay type: in vivo, Avena fatua; settings: pre-emergence method, application rate 500 g/ha, scale from 0 to 100
Description: as §4

POLCO [11] = experiment: greenhouse pre-emergence herbicidal test; assay type: in vivo, Polygonum convolvulus; settings: pre-emergence method, application rate 500 g/ha, scale from 0 to 100
Description: as §4

ABUTH = experiment: greenhouse post-emergence herbicidal test; assay type: in vivo, Abutilon theophrasti; settings: post-emergence method, application rate 1000 g/ha, scale from 0 to 100
Procedure, shortened: as §1

SETVI [12] = experiment: greenhouse post-emergence herbicidal test; assay type: in vivo, Setaria viridis; settings: post-emergence method, application rate 500 g/ha, scale from 0 to 100
Description: as §3

CCc1ncc(-c2ccccc2Cl)c(C(=O)O)n1 [example 6]
herbicidal activity against ECHCG (ECHCG [1]; application rate 500 g/ha): very good (a very good herbicidal activity is given at values of at least 85)
herbicidal activity against APESV (APESV [2]; application rate 500 g/ha): very good (a very good herbicidal activity is given at values of at least 85)
herbicidal activity against LOLMU (LOLMU; application rate 500 g/ha): good (A good herbicidal activity is given at values of at least 70)
herbicidal activity against POLCO (POLCO [3]; application rate 500 g/ha): very good (a very good herbicidal activity is given at values of at least 85)

Cc1ccc(C)c(-c2cnc(C(C)C)nc2C(=O)O)c1 [example 34]
herbicidal activity against ECHCG (ECHCG [1]; application rate 500 g/ha): very good (a very good herbicidal activity is given at values of at least 85)
herbicidal activity against APESV (APESV [2]; application rate 500 g/ha): very good (a very good herbicidal activity is given at values of at least 85)
herbicidal activity against ECHCG (ECHCG [4]): very good (a very good herbicidal activity is given at values of at least 85)
herbicidal activity against LOLMU (LOLMU; application rate 500 g/ha): good (A good herbicidal activity is given at values of at least 70)

COc1ccccc1-c1cnc(OC(C)C)nc1C(=O)O [example 74]
herbicidal activity against SETVI (SETVI [5]): good (A good herbicidal activity is given at values of at least 70)

COC(=O)c1nc(SC)ncc1-c1cc(C)ccc1Cl [example 117]
herbicidal activity against AMARE (AMARE [6]; application rate 500 g/ha): good (A good herbicidal activity is given at values of at least 70)
herbicidal activity against ECHCG (ECHCG [4]): good (A good herbicidal activity is given at values of at least 70)

Cc1ccccc1-c1cnc(C2CC2)nc1C(=O)O [example 161]
herbicidal activity against APESV (APESV [2]; application rate 1000 g/ha): very good (a very good herbicidal activity is given at values of at least 85)
herbicidal activity against AMARE (AMARE [7]; application rate 1000 g/ha): good (A good herbicidal activity is given at values of at least 70)
herbicidal activity against LOLMU (LOLMU; application rate 1000 g/ha): good (A good herbicidal activity is given at values of at least 70)
herbicidal activity against POLCO (POLCO [3]; application rate 1000 g/ha): good (A good herbicidal activity is given at values of at least 70)
herbicidal activity against ALOMY (ALOMY; application rate 1000 g/ha): good (A good herbicidal activity is given at values of at least 70)

COC(=O)c1nc(C2CC2)ncc1-c1c(Cl)cc(F)cc1Cl [example 208]
herbicidal activity against AMARE (AMARE [6]; application rate 1000 g/ha): good (A good herbicidal activity is given at values of at least 70)
herbicidal activity against APESV (APESV [2]; application rate 1000 g/ha): very good (a very good herbicidal activity is given at values of at least 85)
herbicidal activity against AVEFA (AVEFA [8]; application rate 1000 g/ha): very good (a very good herbicidal activity is given at values of at least 85)
herbicidal activity against ALOMY (ALOMY; application rate 1000 g/ha): very good (a very good herbicidal activity is given at values of at least 85)

C#CCOC(=O)c1nc(C2CC2)ncc1-c1ccccc1Cl [example 256]
herbicidal activity against ECHCG (ECHCG [1]; application rate 500 g/ha): very good (a very good herbicidal activity is given at values of at least 85)
herbicidal activity against APESV (APESV [9]): very good (a very good herbicidal activity is given at values of at least 85)
herbicidal activity against APESV (APESV [2]; application rate 500 g/ha): very good (a very good herbicidal activity is given at values of at least 85)
herbicidal activity against ECHCG (ECHCG [4]): very good (a very good herbicidal activity is given at values of at least 85)
herbicidal activity against AVEFA (AVEFA [10]): very good (a very good herbicidal activity is given at values of at least 85)
herbicidal activity against AVEFA (AVEFA [8]; application rate 500 g/ha): very good (a very good herbicidal activity is given at values of at least 85)

O=C(OCC(F)F)c1nc(C2CC2)ncc1-c1ccccc1Cl [example 257]
herbicidal activity against POLCO (POLCO [11]): very good (a very good herbicidal activity is given at values of at least 85)
herbicidal activity against ECHCG (ECHCG [1]; application rate 500 g/ha): good (A good herbicidal activity is given at values of at least 70)
herbicidal activity against APESV (APESV [2]; application rate 500 g/ha): very good (a very good herbicidal activity is given at values of at least 85)
herbicidal activity against ECHCG (ECHCG [4]): very good (a very good herbicidal activity is given at values of at least 85)
herbicidal activity against AVEFA (AVEFA [8]; application rate 500 g/ha): very good (a very good herbicidal activity is given at values of at least 85)
herbicidal activity against ALOMY (ALOMY; application rate 500 g/ha): very good (a very good herbicidal activity is given at values of at least 85)

COC(=O)c1nc(C2CCCO2)ncc1-c1ccccc1C (stereo not drawn) [example 276]
herbicidal activity against AMARE (AMARE [6]; application rate 1000 g/ha): very good (a very good herbicidal activity is given at values of at least 85)
herbicidal activity against ABUTH (ABUTH): very good (a very good herbicidal activity is given at values of at least 85)
herbicidal activity against AMARE (AMARE [7]; application rate 1000 g/ha): very good (a very good herbicidal activity is given at values of at least 85)

CN(C)C(=O)c1nc(C2CC2)ncc1-c1ccccc1Cl [example 285]
herbicidal activity against AMARE (AMARE [6]; application rate 500 g/ha): good (A good herbicidal activity is given at values of at least 70)
herbicidal activity against APESV (APESV [2]; application rate 500 g/ha): good (A good herbicidal activity is given at values of at least 70)

CS(=O)(=O)NC(=O)c1nc(C2CC2)ncc1-c1ccccc1Cl [example 286]
herbicidal activity against APESV (APESV [2]; application rate 500 g/ha): very good (a very good herbicidal activity is given at values of at least 85)
herbicidal activity against AMARE (AMARE [7]; application rate 500 g/ha): very good (a very good herbicidal activity is given at values of at least 85)
herbicidal activity against ECHCG (ECHCG [4]): very good (a very good herbicidal activity is given at values of at least 85)
herbicidal activity against LOLMU (LOLMU; application rate 500 g/ha): very good (a very good herbicidal activity is given at values of at least 85)

CN(C)S(=O)(=O)NC(=O)c1nc(C2CC2)ncc1-c1ccccc1Cl [example 287]
herbicidal activity against AMARE (AMARE [6]; application rate 500 g/ha): very good (a very good herbicidal activity is given at values of at least 85)
herbicidal activity against ECHCG (ECHCG [1]; application rate 500 g/ha): very good (a very good herbicidal activity is given at values of at least 85)
herbicidal activity against APESV (APESV [2]; application rate 500 g/ha): very good (a very good herbicidal activity is given at values of at least 85)
herbicidal activity against LOLMU (LOLMU; application rate 500 g/ha): very good (a very good herbicidal activity is given at values of at least 85)
herbicidal activity against POLCO (POLCO [3]; application rate 500 g/ha): very good (a very good herbicidal activity is given at values of at least 85)

NC(=O)c1nc(C2CC2)ncc1-c1ccccc1Cl [example 288]
herbicidal activity against AMARE (AMARE [6]; application rate 500 g/ha): very good (a very good herbicidal activity is given at values of at least 85)
herbicidal activity against APESV (APESV [2]; application rate 500 g/ha): very good (a very good herbicidal activity is given at values of at least 85)
herbicidal activity against SETVI (SETVI [12]): very good (a very good herbicidal activity is given at values of at least 85)
herbicidal activity against POLCO (POLCO [3]; application rate 500 g/ha): very good (a very good herbicidal activity is given at values of at least 85)

COC(=O)CCSC(=O)c1nc(C2CC2)ncc1-c1ccccc1Cl [example 307]
herbicidal activity against ECHCG (ECHCG [1]; application rate 250 g/ha): good (A good herbicidal activity is given at values of at least 70)
herbicidal activity against APESV (APESV [2]; application rate 250 g/ha): very good (a very good herbicidal activity is given at values of at least 85)
herbicidal activity against LOLMU (LOLMU; application rate 250 g/ha): very good (a very good herbicidal activity is given at values of at least 85)
herbicidal activity against AVEFA (AVEFA [8]; application rate 250 g/ha): very good (a very good herbicidal activity is given at values of at least 85)
